Results on 45 compounds are retold here after publication PMC9289666, “Highly Parallelized, Multicolor Optogenetic Recordings of Cellular Activity for Therapeutic Discovery Applications in Ion Channels and Disease-Associated Excitable Cells” (Frontiers in Molecular Neuroscience, 2022).

Read-outs that look alike come from different tables or passages of the source.

Data set [1] relates to Nav1.5. Conditions: cited from earlier work.
The target in data set [2] is T1, human Nav.1.7 (Homo sapiens, UniProt Q15858).
T1 construct: expressed in transfected cells
Put plainly: Nav1.7 spiking HEK assay on Swarm. The format is cell-based.

Setting [3] is: read-out: Nav1.5 Ionworks (IC50), automated patch clamp, literature reported, ref Harmer et al., 2011.
Where [4] appears, read: normalized mean spike amplitude score, Prestwick library compounds.
The mark [5] stands for this setting: compounds at 1 μM, cutoff 0.5 mean spike amplitude.

T1 sequence (Q15858 whole entry): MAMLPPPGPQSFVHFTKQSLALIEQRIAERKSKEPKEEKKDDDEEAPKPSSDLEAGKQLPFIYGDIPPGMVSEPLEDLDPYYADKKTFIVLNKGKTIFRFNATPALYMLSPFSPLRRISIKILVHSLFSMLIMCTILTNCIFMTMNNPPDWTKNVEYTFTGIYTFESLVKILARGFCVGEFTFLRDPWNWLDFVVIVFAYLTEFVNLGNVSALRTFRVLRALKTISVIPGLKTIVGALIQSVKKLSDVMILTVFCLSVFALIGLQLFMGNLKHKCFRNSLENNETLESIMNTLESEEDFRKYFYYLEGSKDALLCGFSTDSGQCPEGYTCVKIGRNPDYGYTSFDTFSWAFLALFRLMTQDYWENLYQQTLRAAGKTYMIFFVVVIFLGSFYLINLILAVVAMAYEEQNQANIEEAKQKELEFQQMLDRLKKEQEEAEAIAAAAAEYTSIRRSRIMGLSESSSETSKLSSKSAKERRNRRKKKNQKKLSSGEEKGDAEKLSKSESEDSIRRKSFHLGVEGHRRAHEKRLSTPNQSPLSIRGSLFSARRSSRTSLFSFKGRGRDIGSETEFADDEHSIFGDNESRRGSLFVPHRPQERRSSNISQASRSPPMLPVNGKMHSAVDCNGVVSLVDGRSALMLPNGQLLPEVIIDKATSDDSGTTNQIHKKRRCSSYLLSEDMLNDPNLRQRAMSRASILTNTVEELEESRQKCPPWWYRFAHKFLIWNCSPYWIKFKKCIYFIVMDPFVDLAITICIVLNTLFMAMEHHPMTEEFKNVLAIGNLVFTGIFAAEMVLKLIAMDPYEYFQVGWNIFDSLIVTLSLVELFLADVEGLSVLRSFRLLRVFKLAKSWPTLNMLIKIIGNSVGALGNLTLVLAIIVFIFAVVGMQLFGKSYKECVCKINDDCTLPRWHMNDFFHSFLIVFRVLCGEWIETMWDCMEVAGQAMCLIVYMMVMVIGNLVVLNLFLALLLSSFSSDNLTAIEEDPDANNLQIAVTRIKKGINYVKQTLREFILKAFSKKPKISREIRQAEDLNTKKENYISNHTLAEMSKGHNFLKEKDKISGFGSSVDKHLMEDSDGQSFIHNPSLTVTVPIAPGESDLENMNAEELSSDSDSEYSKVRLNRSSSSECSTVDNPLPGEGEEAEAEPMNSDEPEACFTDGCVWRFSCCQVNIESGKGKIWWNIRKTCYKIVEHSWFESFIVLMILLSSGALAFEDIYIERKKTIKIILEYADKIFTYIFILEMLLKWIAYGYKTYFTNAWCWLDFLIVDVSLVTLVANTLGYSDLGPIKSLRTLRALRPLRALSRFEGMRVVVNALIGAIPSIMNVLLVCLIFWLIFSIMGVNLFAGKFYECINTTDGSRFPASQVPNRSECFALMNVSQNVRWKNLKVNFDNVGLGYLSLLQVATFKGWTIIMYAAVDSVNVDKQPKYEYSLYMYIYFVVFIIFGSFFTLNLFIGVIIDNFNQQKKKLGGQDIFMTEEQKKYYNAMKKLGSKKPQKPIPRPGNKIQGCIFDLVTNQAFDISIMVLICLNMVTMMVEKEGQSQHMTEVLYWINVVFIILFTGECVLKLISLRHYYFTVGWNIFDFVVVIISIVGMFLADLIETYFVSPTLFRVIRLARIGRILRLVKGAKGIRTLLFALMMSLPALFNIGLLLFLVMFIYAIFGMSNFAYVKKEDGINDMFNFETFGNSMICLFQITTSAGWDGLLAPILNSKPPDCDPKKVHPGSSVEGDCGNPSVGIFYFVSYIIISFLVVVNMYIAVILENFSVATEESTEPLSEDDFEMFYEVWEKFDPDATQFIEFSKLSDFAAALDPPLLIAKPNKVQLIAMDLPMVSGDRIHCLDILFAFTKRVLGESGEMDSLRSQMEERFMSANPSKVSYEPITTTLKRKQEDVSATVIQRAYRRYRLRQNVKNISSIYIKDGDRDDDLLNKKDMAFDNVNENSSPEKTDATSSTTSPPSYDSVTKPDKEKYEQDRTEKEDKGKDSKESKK

What is called IC50 is the midpoint of a concentration-inhibition curve. As for `O=C1NCCN1CCN1CCC(c2cn(-c3ccc(F)cc3)c3ccc(Cl)cc23)CC1` [Sertindole], the IC50 in data set [1] (setting [3]) was 8.1 µM. Further, the “Nav1.7 Swarm (score at 3 µM)” value in data set [2] (setting [4]) turned out to be 0.64.
As for `CCCCc1oc2ccccc2c1C(=O)c1cc(I)c(OCCN(CC)CC)c(I)c1` [Amiodarone], the “Nav1.7 Swarm (score at 3 µM)” value in data set [2] amounted to 0.52.
For `COc1ccc([C@@H]2Sc3ccccc3N(CCN(C)C)C(=O)[C@@H]2OC(C)=O)cc1` [Diltiazem], the IC50 in data set [1] (setting [3]) is 14.2 µM. Also, the “Nav1.7 Swarm (score at 3 µM)” value in data set [2] (setting [4]) is 0.82.
As to `Clc1ccc2c(c1)C(N1CCNCC1)=Nc1ccccc1O2` [Amoxapine], the half-inhibitory concentration (IC50) in data set [1] (setting [3]) was 5.8 µM.
As to `CCc1nc(N)nc(N)c1-c1ccc(Cl)cc1` [Pyrimethamine], the IC50 in data set [1] (setting [3]) is 24.6 µM. In data set [2] (setting [4]), the “Nav1.7 Swarm (score at 3 µM)” value is on record as 0.99.
`CCN(CC)CCNC(=O)c1cc(Br)c(N)cc1OC` [Bromopride]: the IC50 in data set [1] (setting [3]) is 41.4 µM. Besides, in data set [2] (setting [4]), the “Nav1.7 Swarm (score at 3 µM)” value worked out at 0.92.
Take `COC(=O)C1=C(C)NC(C)=C(C(=O)OCCN(C)Cc2ccccc2)C1c1cccc([N+](=O)[O-])c1` (centres unmarked) [Nicardipine]: the IC50 in data set [1] (setting [3]) is 4.3 µM. In addition, the “Nav1.7 Swarm (score at 3 µM)” value in data set [2] (setting [4]) was 0.07.
Regarding `CC(=O)N1CCN(c2ccc(OCC3COC(Cn4ccnc4)(c4ccc(Cl)cc4Cl)O3)cc2)CC1` (centres unmarked) [Ketoconazole], the half-inhibitory concentration (IC50) in data set [1] (setting [3]) is 44.9 µM. The “Nav1.7 Swarm (score at 3 µM)” value in data set [2] (setting [4]) was determined as 0.96.
`CN1CCN(CCCN2c3ccccc3Sc3ccc(C(F)(F)F)cc32)CC1` [Trifluoperazine]: the half-maximal inhibitory concentration (IC50) in data set [1] (setting [3]) is 7.4 µM. The “Nav1.7 Swarm (score at 3 µM)” value in data set [2] (setting [4]) stood at 0.25.
For `CC(C)COCC(CN(Cc1ccccc1)c1ccccc1)N1CCCC1` (centres unmarked) [Bepridil], the IC50 in data set [1] is 1.9 µM.
Regarding `CNCCC=C1c2ccccc2CCc2ccccc21` [Nortriptyline], in data set [1] (setting [3]), the half-maximal inhibitory concentration (IC50) is 2 µM. Further, the “Hit identification in Prestwick Chemical Library pilot screen” value (shortened to “Hit identification”) in data set [2] (setting [5]) was “hits”. Moreover, the “Nav1.7 Swarm (score at 3 µM)” value in data set [2] (setting [4]) was 0.19.
With `Fc1ccc(C(c2ccc(F)cc2)N2CCN(C/C=C/c3ccccc3)CC2)cc1` [Flunarizine], the half-maximal inhibitory concentration (IC50) in data set [1] (setting [3]) is 2.6 µM. The “Nav1.7 Swarm (score at 3 µM)” value in data set [2] (setting [4]) turned out to be 0.16.
As to `C=C1C[C@@H]2[C@H](CC[C@]3(C)C(=O)CC[C@@H]23)[C@@]2(C)C=CC(=O)C=C12` [Exemestane], the IC50 in data set [1] (setting [3]) is 71.3 µM. Moreover, in data set [2] (setting [4]), the “Nav1.7 Swarm (score at 3 µM)” value was found to be 0.90.
Regarding `CN[C@H]1CC[C@@H](c2ccc(Cl)c(Cl)c2)c2ccccc21` [Sertraline], the “Nav1.7 Swarm (score at 3 µM)” value in data set [2] is on record as 0.87.
On to `CNCCCN1c2ccccc2CCc2ccccc21` [Desipramine], for which the half-maximal inhibitory concentration (IC50) in data set [1] (setting [3]) is 2.4 µM. In addition, in data set [2] (setting [5]), the “Hit identification” value was “hits”. The “Nav1.7 Swarm (score at 3 µM)” value in data set [2] (setting [4]) was found to be 0.38.
On to `OCCOCCN1CCN(C(c2ccccc2)c2ccc(Cl)cc2)CC1` (centres unmarked) [Hydroxyzine], for which the 50% inhibitory concentration (IC50) in data set [1] (setting [3]) is 32.8 µM. For the same compound, the “Nav1.7 Swarm (score at 3 µM)” value in data set [2] (setting [4]) came out at 0.56.
With `CCN(CC)CCNC(=O)c1ccc(N)cc1` [Procainamide], in data set [2] (setting [4]), the “Nav1.7 Swarm (score at 3 µM)” value is reported as 1.00.
In the case of `CC(C)NC[C@@H](O)COc1cccc2ccccc12` [(R)-Propranolol], in data set [1], the IC50 is 7.5 µM. In data set [2] (setting [4]), the “Nav1.7 Swarm (score at 3 µM)” value worked out at 0.63.
For the compound `CN1CCC(=C2c3ccccc3C=Cc3ccccc32)CC1` [Cyproheptadine], the concentration for half-maximal inhibition (IC50) in data set [1] (setting [3]) is 6.1 µM. For the same compound, the “Nav1.7 Swarm (score at 3 µM)” value in data set [2] (setting [4]) is listed as 0.44.
On to `CCN(CC)CCCC(C)Nc1ccnc2cc(Cl)ccc12` (centres unmarked) [Chloroquine], for which, in data set [1], the 50% inhibitory concentration (IC50) is 36.5 µM. In addition, in data set [2], the “Nav1.7 Swarm (score at 3 µM)” value is 0.98.
As to `Cc1cccc(C)c1NC(=O)C1CCCCN1C` (centres unmarked) [Mepivacaine], the 50% inhibitory concentration (IC50) in data set [1] (setting [3]) was 81.4 µM. In addition, the “Nav1.7 Swarm (score at 3 µM)” value in data set [2] (setting [4]) came to 0.96.
For the compound `CN(C)CCCC1(c2ccc(F)cc2)OCc2cc(C#N)ccc21` (centres unmarked) [Citalopram], the IC50 in data set [1] (setting [3]) was 14.7 µM. For the same compound, in data set [2] (setting [4]), the “Nav1.7 Swarm (score at 3 µM)” value stood at 0.92.
With `CCOC(=O)N1CCC(=C2c3ccc(Cl)cc3CCc3cccnc32)CC1` [Loratadine], the “Nav1.7 Swarm (score at 3 µM)” value in data set [2] (setting [4]) amounted to 0.62.
With `O=c1[nH]c2ccccc2n1CCCN1CCC(n2c(=O)[nH]c3cc(Cl)ccc32)CC1` [Domperidone], the IC50 in data set [1] (setting [3]) was 5.6 µM. In data set [2] (setting [4]), the “Nav1.7 Swarm (score at 3 µM)” value is 0.53.
On to `COC(=O)[C@H]1[C@H]2C[C@@H]3c4[nH]c5cc(OC)ccc5c4CCN3C[C@H]2C[C@@H](OC(=O)c2cc(OC)c(OC)c(OC)c2)[C@@H]1OC` [Reserpine], for which the half-maximal inhibitory concentration (IC50) in data set [1] (setting [3]) is 10.5 µM. Also, in data set [2] (setting [4]), the “Nav1.7 Swarm (score at 3 µM)” value was found to be 1.01.
For the compound `CCCNCC(O)COc1ccccc1C(=O)CCc1ccccc1` (centres unmarked) [Propafenone], the “Nav1.7 Swarm (score at 3 µM)” value in data set [2] (setting [4]) is 0.20.
With `CC12CC3CC(C)(C1)CC(N)(C3)C2` [Memantine], in data set [1] (setting [3]), the 50% inhibitory concentration (IC50) is 92.6 µM. The “Nav1.7 Swarm (score at 3 µM)” value in data set [2] (setting [4]) worked out at 0.98.
On to `CCN(CC)CCOC(=O)c1ccc(N)cc1` [Procaine], for which the IC50 in data set [1] (setting [3]) was 84.6 µM. In addition, in data set [2] (setting [4]), the “Nav1.7 Swarm (score at 3 µM)” value is given as 1.07.
Regarding `OCc1cc(C(O)CNCCCCCCOCCCCc2ccccc2)ccc1O` (centres unmarked) [Salmeterol], the IC50 in data set [1] (setting [3]) was 7.2 µM. Moreover, the “Nav1.7 Swarm (score at 3 µM)” value in data set [2] (setting [4]) amounted to 0.22.
`CN(C)CCCN1c2ccccc2Sc2ccc(Cl)cc21` [Chlorpromazine]: in data set [1] (setting [3]), the IC50 is 2.8 µM. Also, the “Nav1.7 Swarm (score at 3 µM)” value in data set [2] (setting [4]) amounted to 0.32.
As for `Cc1cc2c(s1)Nc1ccccc1N=C2N1CCN(C)CC1` [Olanzapine], in data set [2], the “Nav1.7 Swarm (score at 3 µM)” value was found to be 1.09.
As for `CN(C)CCCN1c2ccccc2CCc2ccccc21` [Imipramine], in data set [2] (setting [5]), the “Hit identification” value is “hits”. For the same compound, the “Nav1.7 Swarm (score at 3 µM)” value in data set [2] (setting [4]) came to 0.35.
On to `CCOC(=O)Nc1ccc2c(c1)N(C(=O)CCN1CCOCC1)c1ccccc1S2` [Moricizine], for which the IC50 in data set [1] (setting [3]) was 1.2 µM. The “Nav1.7 Swarm (score at 3 µM)” value in data set [2] (setting [4]) amounted to 0.15.
As to `Nc1nc2ccc(OC(F)(F)F)cc2s1` [Riluzole], in data set [2] (setting [4]), the “Nav1.7 Swarm (score at 3 µM)” value was 0.14.
`COc1ccc(C(CN(C)C)C2(O)CCCCC2)cc1` (centres unmarked) [Venlafaxine]: in data set [1] (setting [3]), the 50% inhibitory concentration (IC50) was 90.1 µM. Moreover, in data set [2] (setting [4]), the “Nav1.7 Swarm (score at 3 µM)” value is 0.95.
For the compound `CN(C)CCCN1c2ccccc2CCc2ccc(Cl)cc21` [Clomipramine], in data set [1] (setting [3]), the 50% inhibitory concentration (IC50) was 2.6 µM. Besides, in data set [2], the “Hit identification” value was “hits” and the “Nav1.7 Swarm (score at 3 µM)” value came to 0.20.
As to `COc1c(N2C[C@@H]3CCCN[C@@H]3C2)c(F)cc2c(=O)c(C(=O)O)cn(C3CC3)c12` [Moxifloxacin], the “Nav1.7 Swarm (score at 3 µM)” value in data set [2] (setting [4]) amounted to 1.06.
Turning to `O=c1[nH]c2ccccc2n1C1CCN(CCCC(c2ccc(F)cc2)c2ccc(F)cc2)CC1` [Pimozide], in data set [1] (setting [3]), the 50% inhibitory concentration (IC50) was 1.7 µM. Besides, in data set [2] (setting [4]), the “Nav1.7 Swarm (score at 3 µM)” value is 0.89.
Take `COC(=O)C1=C(C)NC(C)=C(C(=O)OC)C1c1ccccc1[N+](=O)[O-]` [Nifedipine]: the “Nav1.7 Swarm (score at 3 µM)” value in data set [2] (setting [4]) is 0.97.
For `CC(C)(C)c1ccc(C(O)CCCN2CCC(C(O)(c3ccccc3)c3ccccc3)CC2)cc1` (centres unmarked) [Terfenadine], the “Nav1.7 Swarm (score at 3 µM)” value in data set [2] (setting [4]) is reported as 0.39.
For `CCN(CC)CC(=O)Nc1c(C)cccc1C` [Lidocaine], the “Nav1.7 Swarm (score at 3 µM)” value in data set [2] is 0.91. For the same compound, the half-maximal inhibitory concentration (IC50) in data set [2] (8 mM bath [K+], mean spike amplitude across all test pulses) came to 15 µM.
Take `C=C[C@H]1C[N@@]2CC[C@H]1C[C@@H]2[C@@H](O)c1ccnc2ccc(OC)cc12` [Quinidine]: the IC50 in data set [1] (setting [3]) is 9.7 µM.
As for `CCc1nn(CCCN2CCN(c3cccc(Cl)c3)CC2)c(=O)n1CCOc1ccccc1` [nefazodone], the “Hit identification” value in data set [2] (setting [5]) is recorded as “hits”.
Take `CN(C)CCC=C1c2ccccc2COc2ccccc21` [doxepin]: the “Hit identification” value in data set [2] (setting [5]) is “hits”.
In the case of `Cc1nc2n(c(=O)c1CCN1CCC(c3noc4cc(F)ccc34)CC1)CCCC2` [Risperidone], in data set [2], the “Nav1.7 Swarm (score at 3 µM)” value was determined as 0.89.
